Experimental data: PMC10051292, “Neoprzewaquinone A Inhibits Breast Cancer Cell Migration and Promotes Smooth Muscle Relaxation by Targeting PIM1 to Block ROCK2/STAT3 Pathway” (International Journal of Molecular Sciences, 2023)

Molecular target: PIM1 (Homo sapiens, UniProt P11309)
Assay: ADP-Glo in vitro kinase assay; supported by CETSA western blot in MDA-MB-231 (about […] °C stabilization)
Format: biochemical

Chain of PIM1 (P11309 whole entry): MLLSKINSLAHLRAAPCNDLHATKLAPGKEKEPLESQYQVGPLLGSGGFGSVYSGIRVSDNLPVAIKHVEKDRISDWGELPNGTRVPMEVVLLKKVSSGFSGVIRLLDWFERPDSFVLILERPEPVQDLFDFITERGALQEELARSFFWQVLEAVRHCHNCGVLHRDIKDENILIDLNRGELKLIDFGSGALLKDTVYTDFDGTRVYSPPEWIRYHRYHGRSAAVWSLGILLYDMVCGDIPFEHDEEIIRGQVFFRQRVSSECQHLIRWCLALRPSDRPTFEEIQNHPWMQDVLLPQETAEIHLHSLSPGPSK

IC50: 560 nM
SMILES: C=C1CCCc2c(ccc3c2C(=O)C(=O)c2c(C)coc2-3)/C(C)=C/CCc2c1ccc1c2C(=O)C(=O)c2c(C)coc2-1 [NEO, Neoprzewaquinone A]
